We go through one molecule from patent US11198710B2, “Transgenic plant having herbicide resistance” (priority 2016, dated 2021).

Experiment [1] has as its system transgenic rapeseed plants comprising the TaQ8GTC0 gene. The experiment is described as follows: Rapeseed sensitivity test 1 (post-sowing/pre-emergence soil treatment), transgenic. The experiment is classed as in vivo, Brassica napus. On the procedure:
Wild-type rapeseed plants (variety: Westar) and transgenic rapeseed plants comprising the wheat GST gene introduced therein were subjected to Rapeseed sensitivity test 1 in plastic pots (length: 8 cm; width: 8 cm; height: 6 cm). The test was carried out in Fujino soil (sandy loam soil), and 4 seeds of wild-type rapeseed and 8 seeds of transgenic rapeseed were sown in each pot (sowing depth: 1 cm). Water dispersible granules containing 50% pyroxasulfone were applied at 5 different doses of 1, 4, 16, 63, and 250 g a.i./ha (n=3). Immediately after pyroxasulfone treatment, about 1 mm of rain was fallen with the use of artificial rainfall device, and water was supplied from the bottom of the pots. Thereafter, water was supplied from the bottom of the pot when the soil surface was dried in the pot, according to need.
The difference in the sensitivity of rapeseed to pyroxasulfone applied pre-emergence was examined (temperature: 22° C., fluorescent light), and whether or not the transgenic rapeseed plant comprising wheat GST had pyroxasulfone resistance was evaluated in terms of the plant height, the herbicidal symptoms, and the cotyledon growth. Specifically, heights of the plants were measured 2 weeks after seeds sowing of rapeseed and pyroxasulfone application, and the inhibition was assessed by comparison to control plants grown in the absence of pyroxauslfone (n=4 to 12). In FIGS. 37 to 39, “TaGST” stands for a transgenic rapeseed plant comprising the TaQ8GTC0 gene. Values in the table in FIG. 38 are expressed as the mean±standard deviation (n=4 to 12).

Experiment [2] has as its system wild-type rice plant (Nipponbare). The experiment is described as follows: Sensitivity of wild-type rice (Nipponbare) to VLCFAE-inhibiting herbicides, gellan gum medium. The experiment is classed as in vivo. The note with it: Oryza sativa, 168 h. Here is the method:
Whether or not a rice plant comprising the TaQ8GTC0 gene introduced therein has VLCFAE-inhibiting herbicide resistance was determined on the basis of a difference in sensitivity of rice between transformant and wild-type. Accordingly, the sensitivity of the wild-type rice plant (Nipponbare) to VLCFAE-inhibiting herbicides used in the glutathione conjugation activity test was examined as described below.
The growth inhibition test was carried out using a gellan gum medium. Hoagland's mix and 3 g of gellan gum were suspended in 1 liter of distilled water and thoroughly dissolved therein by heating in a microwave. A fraction of the resultant (15 ml) was poured in a tubular bottle before it was cooled. When the herbicide (an acetone solution) was to be incorporated thereinto, the herbicide was simultaneously added at the time of filling of the gellan gum medium into the tubular bottle, followed by thorough mixing (final acetone concentration: 0.1%). Rice hulls were soaked in a 50-fold diluted sodium hypochlorite solution (antiformin) (Wako) for approximately 20 minutes and then thoroughly rinsed with water. Sterilized seeds were soaked in distilled water and allowed to stand at 27° C. for germination (for approximately 2 days). Germinating seeds were transferred with the sprout side up to a gellan gum medium containing herbicide (the tubular bottle). Subsequently, these samples, together with a beaker filled with distilled water, were placed in a transparent case, which was then covered with a clear plastic wrap. These samples were grown at 27° C. under fluorescent light illumination (14 hours of a light period and 10 hours of a dark period) for 1 week, the plants were sampled, and the plant heights were then measured. Inhibition of shoot growth was determined by comparison to control plant grown in the absence of herbicide and the concentration required for 50% inhibition (IC50) was determined by the Probit method.

One may read the inhibition as the share of the control response that was lost under treatment. With `Cn1nc(C(F)(F)F)c(CS(=O)(=O)C2=NOC(C)(C)C2)c1OC(F)F` [Pyroxasulfone, 3-[5-(difluoromethoxy)-1-methyl-3-(trifluoromethyl)pyrazol-4-ylmethylsulfonyl]-4,5-dihydro-5,5-dimethyl-1,2-oxazole], the cotyledon growth entry in experiment [1] (250 g a.i./ha) is recorded as “grew to a certain extent”. In addition, the inhibition at 16 g/ha in experiment [1] (Brassica napus, 336 h, 16 g a.i./ha, 2 weeks after sowing and application, 22° C., read-out: shoot growth inhibition (plant height)) stood at 48.2%. The “herbicidal symptoms (cotyledons dark green)” value in experiment [1] (pre-emergence soil treatment, doses up to 250 g a.i./ha) was “not detected”. Also, the minimal effective concentration in experiment [2] (minimal concentration at which growth of wild-type rice is inhibited, read-out: Minimal inhibitory concentration) worked out at 0.075 µM. In addition, the IC50 in experiment [2] (shoot growth, 1 week, Probit method, read-out: I50) worked out at 48 nM.
